Measured values published in PubChem BioAssay (NCI).
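Abbreviation: GI50, concentration required for 50% inhibition of growth. TGI marks complete inhibition of growth.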

Assays:
Assay in all cases: DTP human tumour cell line panel, 384-well format
COLO 205 colon = system: COLO 205 colon
HOP-62 NSCLC = system: HOP-62 NSCLC
SK-MEL-5 melanoma = system: SK-MEL-5 melanoma
SNB-75 CNS = system: SNB-75 CNS
PC-3 prostate = system: PC-3 prostate
OVCAR-8 ovarian = system: OVCAR-8 ovarian
EKVX NSCLC = system: EKVX NSCLC
K-562 leukemia = system: K-562 leukemia
KM12 colon = system: KM12 colon
SF-539 CNS = system: SF-539 CNS
SR leukemia = system: SR leukemia
HCC-2998 colon = system: HCC-2998 colon
NCI-H322M lung = system: NCI-H322M lung
HCT-15 colon = system: HCT-15 colon
MOLT-4 leukemia = system: MOLT-4 leukemia
SNB-19 CNS = system: SNB-19 CNS
RPMI-8226 leukemia = system: RPMI-8226 leukemia
MCF7 breast = system: MCF7 breast
LOX IMVI melanoma = system: LOX IMVI melanoma
SK-OV-3 ovarian = system: SK-OV-3 ovarian
OVCAR-3 ovarian = system: OVCAR-3 ovarian
IGROV1 ovarian = system: IGROV1 ovarian
TK-10 renal = system: TK-10 renal
CCRF-CEM leukemia = system: CCRF-CEM leukemia
SK-MEL-2 melanoma = system: SK-MEL-2 melanoma
MALME-3M melanoma = system: MALME-3M melanoma
UACC-62 melanoma = system: UACC-62 melanoma
SN12C renal = system: SN12C renal
MDA-MB-435 melanoma = system: MDA-MB-435 melanoma
BT-549 breast = system: BT-549 breast
U251 glioblastoma = system: U251 glioblastoma
A549 NSCLC = system: A549 NSCLC
SF-268 CNS = system: SF-268 CNS
HT29 colon = system: HT29 colon
NCI/ADR-RES ovarian = system: NCI/ADR-RES ovarian
NCI-H23 lung = system: NCI-H23 lung
NCI-H460 NSCLC = system: NCI-H460 NSCLC
M14 melanoma = system: M14 melanoma
UACC-257 melanoma = system: UACC-257 melanoma
786-0 renal = system: 786-0 renal
MDA-MB-231 breast = system: MDA-MB-231 breast
RXF 393 renal = system: RXF 393 renal
HL-60(TB) leukemia = system: HL-60(TB) leukemia
SK-MEL-28 melanoma = system: SK-MEL-28 melanoma
A498 renal = system: A498 renal
HS 578T breast = system: HS 578T breast
OVCAR-4 ovarian = system: OVCAR-4 ovarian
MDA-MB-468 breast = system: MDA-MB-468 breast
HCT-116 colon = system: HCT-116 colon

CN(c1ncccc1CNc1nc(Nc2ccc3c(c2)CC(=O)N3)ncc1C(F)(F)F)S(C)(=O)=O
GI50 (COLO 205 colon): 1.46 µM | TGI (COLO 205 colon): 4.28 µM | GI50 (HOP-62 NSCLC): 1.97 µM | TGI (HOP-62 NSCLC): 7.83 µM | GI50 (SK-MEL-5 melanoma): 1.63 µM | TGI (SK-MEL-5 melanoma): 3.11 µM | GI50 (SNB-75 CNS): 1.55 µM | TGI (SNB-75 CNS): 3.6 µM | GI50 (PC-3 prostate): 2.51 µM | TGI (PC-3 prostate): > 100 µM | GI50 (OVCAR-8 ovarian): 3.31 µM | TGI (OVCAR-8 ovarian): > 100 µM | GI50 (EKVX NSCLC): 1.49 µM | TGI (EKVX NSCLC): 4.17 µM | GI50 (K-562 leukemia): 2.83 µM | TGI (K-562 leukemia): > 100 µM | GI50 (KM12 colon): 0.218 µM | TGI (KM12 colon): 1.72 µM | GI50 (SF-539 CNS): 1.86 µM | TGI (SF-539 CNS): 3.7 µM | GI50 (SR leukemia): 0.501 µM | TGI (SR leukemia): 1.67 µM | GI50 (HCC-2998 colon): 1.19 µM | TGI (HCC-2998 colon): 3.21 µM | GI50 (NCI-H322M lung): 2.01 µM | TGI (NCI-H322M lung): 4.45 µM | GI50 (HCT-15 colon): 3.81 µM | TGI (HCT-15 colon): 17 µM | GI50 (MOLT-4 leukemia): 0.431 µM | TGI (MOLT-4 leukemia): 1.3 µM | GI50 (SNB-19 CNS): 3.39 µM | TGI (SNB-19 CNS): > 100 µM | GI50 (RPMI-8226 leukemia): 1.66 µM | TGI (RPMI-8226 leukemia): 3.03 µM | GI50 (MCF7 breast): 1.02 µM | TGI (MCF7 breast): 8.25 µM | GI50 (LOX IMVI melanoma): 1.54 µM | TGI (LOX IMVI melanoma): 3.58 µM | GI50 (SK-OV-3 ovarian): 3.1 µM | TGI (SK-OV-3 ovarian): > 100 µM | GI50 (OVCAR-3 ovarian): 2 µM | TGI (OVCAR-3 ovarian): 4.74 µM | GI50 (IGROV1 ovarian): 2.42 µM | TGI (IGROV1 ovarian): > 100 µM | GI50 (TK-10 renal): 2.79 µM | TGI (TK-10 renal): > 100 µM | GI50 (CCRF-CEM leukemia): 1.71 µM | TGI (CCRF-CEM leukemia): 3.33 µM | GI50 (SK-MEL-2 melanoma): 1.85 µM | TGI (SK-MEL-2 melanoma): 3.58 µM | GI50 (MALME-3M melanoma): 2.2 µM | TGI (MALME-3M melanoma): 4.94 µM | GI50 (UACC-62 melanoma): 1.39 µM | TGI (UACC-62 melanoma): 2.86 µM | GI50 (SN12C renal): 2.4 µM | TGI (SN12C renal): 5.72 µM | GI50 (MDA-MB-435 melanoma): 2.29 µM | TGI (MDA-MB-435 melanoma): 7.7 µM | GI50 (BT-549 breast): 1.74 µM | TGI (BT-549 breast): 3.88 µM | GI50 (U251 glioblastoma): 2.88 µM | TGI (U251 glioblastoma): > 100 µM | GI50 (A549 NSCLC): 3.15 µM | TGI (A549 NSCLC): > 100 µM | GI50 (SF-268 CNS): 1.82 µM | TGI (SF-268 CNS): 3.99 µM | GI50 (HT29 colon): 3.74 µM | TGI (HT29 colon): > 100 µM | GI50 (NCI/ADR-RES ovarian): 26 µM | TGI (NCI/ADR-RES ovarian): 95.6 µM | GI50 (NCI-H23 lung): 1.79 µM | TGI (NCI-H23 lung): 3.34 µM | GI50 (NCI-H460 NSCLC): 1.61 µM | TGI (NCI-H460 NSCLC): 3.29 µM | GI50 (M14 melanoma): 1.75 µM | TGI (M14 melanoma): 4.24 µM | GI50 (UACC-257 melanoma): 2.01 µM | TGI (UACC-257 melanoma): 4.34 µM | GI50 ([…]-0 renal): 2.44 µM | TGI (786-0 renal): 7.78 µM | GI50 (MDA-MB-231 breast): 2.55 µM | TGI (MDA-MB-231 breast): > 100 µM | GI50 (RXF 393 renal): 1.2 µM | TGI (RXF 393 renal): 2.69 µM | GI50 (HL-60(TB) leukemia): 1.7 µM | TGI (HL-60(TB) leukemia): 3.09 µM | GI50 (SK-MEL-28 melanoma): 1.85 µM | TGI (SK-MEL-28 melanoma): 4.2 µM | GI50 (A498 renal): 2.91 µM | TGI (A498 renal): > 100 µM | GI50 (HS 578T breast): 1.62 µM | TGI (HS 578T breast): 3.7 µM | GI50 (OVCAR-4 ovarian): 2.48 µM | TGI (OVCAR-4 ovarian): 8.64 µM | GI50 (MDA-MB-468 breast): 1.85 µM | TGI (MDA-MB-468 breast): 3.38 µM | GI50 (HCT-116 colon): 1.89 µM | TGI (HCT-116 colon): > 100 µM
